Consider one compound from patent publication US11192900B2, “Substituted 1,6-dihydropyridinones and 1,2-dihydroisoquinolinones as bet inhibitors” (NUVATION BIO INC., priority 2018, dated 2021).

Assay [1] relates to 22Rv1 human prostate carcinoma cell line. The assay is described as follows: Cell viability assay (resazurin). Format: cell-based. To be noted: 22Rv1, resazurin, 72 hrs. As for the experimental part:
(§1) The effects of test compounds were also studied in the 22Rv1 human prostate carcinoma and MDA-MB-231 human breast adenocarcinoma cell lines. The cells were harvested during the logarithmic growth period and counted. Cells were seeded at a count of 3000 cells (22Rv1) or 5000 cells (MDA-MB-231) per well/100 μl in a 96-well plate. After seeding, cells were incubated at 37° C., 5% CO2 for 24 hr. Cells were treated with test compounds at 8 concentrations within a desired concentration range (e.g. 5 nM-10 μM) for generation of dose response curves by preparing serial dilutions of the test compound in DMSO which were further diluted with culture medium and then added to each well. The plate was further incubated for another 72 hrs (22Rv1) or 96 hrs (MDA-MB-231) in humidified incubator at 37° C. and 5% CO2. The assay was terminated by addition of resazurin (# R7017, Sigma). The plate was incubated for 4 hr at 37° C., 5% CO2 and fluorescence was measured using excitation and emission wavelengths of 535 and 590 nm, respectively. Cell viability data were plotted using GraphPad Prism (GraphPad Software, Inc., San Diego, Calif.). In addition, a nonlinear regression model with a sigmoidal dose response and variable slope within GraphPad Prism was used to calculate the IC50 value of individual test compounds.
(Resazurin is reduced to fluorescent resorufin, in cell work by metabolically active cells.)

The test system of assay [2] is MDA-MB-231 human breast adenocarcinoma cell line. As to the kind of experiment: Cell viability assay (resazurin). The class given is cell-based. To be noted: MDA-MB-231, resazurin, 96 hrs. Here is the method:
as §1

For the compound `C=CS(=O)(=O)Nc1ccc(Oc2ccc(F)cc2F)c(-c2cc(NC)c(=O)n(C)c2)c1` [Compound 3, N-(4-(2,4-difluorophenoxy)-3-(1-methyl-5-(methylamino)-6-oxo-1,6-dihydropyridin-3-yl)phenyl)ethenesulfonamide], the results for the IC50 in assay [1] and in assay [2] were 58 nM and 82 nM, respectively.

One may read the IC50 as the concentration at which inhibition is half-maximal. Lower therefore signals higher potency.
